Measurements reported in patent US3960859A, “21-Deoxydihydroajmaline derivatives” (VEB Arzneimittelwerk Dresden, priority 1975, dated 1976).
Where a name gives a salt, the structure may show the parent alone.

Columns and labels:
[1] = tested on: aconitine-induced ventricular extrasystoles; experiment: Aconitine test procedures carried out in rats (antiarrhythmic activity); assay type: in vivo
Description: (§1) In the procedures the term ED20 designates the dose in mg/kg at which only isolated or sporadic ventricular extrasystoles occur.

[2] = tested on: fibrillation or flutter generated by aconitine; assay type: in vivo; conditions: dog
in vivo = conditions: for Q: Table 1, ratio not defined in text (equals LD50/ED20)
Description: as §1

[3] = background statement; cited from earlier work

Row | Structure (SMILES) | ED20 ([1]; aconitine test, rats, dose at which only isolated or sporadic ventricular extrasystoles occur) | undesirable side effects, share of cases ([2]; N-propylajmaline (0.3 mg/kg)) | LD50 (in vivo; Table 1, aconitine test procedures in rats, unit not given) | rhythm regulating / antiarrhythmic activity (in words) [3] | ED20 ([1]; Rattus norvegicus) | Q (in vivo) | LD50 (in vivo; rat, in vivo) | side effects ([2]; Example 3 (0.6 mg/kg)) | therapeutic effectiveness against aconitine fibrillation or flutter ([2]; Example 3 at 0.6 mg/kg compared with N-propylajmaline at 0.3 mg/kg)
1 | CCC[N+]12[C@H](O)[C@@H](CC)[C@@H]3C[C@H]1[C@@H]1N(C)c4ccccc4[C@]14C[C@H]2[C@@H]3[C@H]4O [N-Propylajmaline, N-propylajmaline] | 0.17 mg/kg | at least 30% | 1.4 |  |  |  |  |  | 
2 | CCC(C)C1CC2NC3CC4(c5ccccc5N(C)C24)C(O)C31 (stereo not shown) [21-deoxydihydroajmaline] |  |  |  | rhythm regulating activity is extensively lost |  |  |  |  | 
3 | CC[C@H]1[C@@H]2C[C@H]3[C@@H]4N(C)c5ccccc5[C@]45C[C@@H]([C@H]2[C@H]5O)N3[C@@H]1O [Ajmaline, ajmaline] |  |  |  | valuable antiarhythmic properties | 2.13 mg/kg | 12.2 | 26 mg/kg |  | 
4 | CCC(C)C1CC2C3N(C)c4ccccc4C34CC(C1C4O)N2CCN1CCCCC1 (stereo not drawn) [Example 3, 4-(β-piperidinoethyldeoxydihydroajmaline-dihydrochloride)] |  |  |  |  | 0.25 mg/kg | 21.6 | 5.4 mg/kg | no side effects | about the same therapeutic effectiveness as N-propylajmaline administered in a dose of 0.3 mg/kg
